{"source": "patent US12613249B2", "about": "(THE ROYAL INSTITUTION FOR THE ADVANCEMENT OF LEARNING / …, priority 2019, dated 2026)", "assay": "MALDI-TOF-MSI brain distribution", "assay_type": "in vivo, C57BL/6 mice", "conditions": "single oral dose 10 mg/kg, 4 h post-administration, sagittal brain sections", "protocol": "Frozen brains were stored at −80° C. until needed for analysis. Serial sagittal brain sections (10 μm thick) obtained using a cryostat (Leica Microsystems CM1100, Wetzlar, Germany), were thaw mounted onto an indium tin oxide (ITO) coated glass slide (Bruker, Bremen, Germany). Glass slides were removed from deep freeze and immediately transferred to a vacuum desiccator. Following 12 h desiccation time, the slides were scanned using a flatbed scanner (HP LaserJet 3055). The α-cyano-4-hydroxy cinnamic acid (CHCA) matrix (10 mg/mL) was prepared in 50% acetonitrile (ACN) containing 0.1% trifluoroacetic acid (TFA). The matrix solution was sonicated for 10 min and centrifuged at 10 000 rpm for 10 min before transfer to the ImagePrep (Bruker Daltonics). […] A standard solution of D-AIP (1 μg/mL was analyzed using matrix assisted laser desorption ionization time of flight mass spectrometry (MALDI TOF MS) operated both at reflectron and MALDI MS/MS (LIFT) modes respectively with the aid of the UltraflExtreme MALDI TOF/TOF 2 KHz smartbeam laser (Bruker Daltonics, Bremen, Germany) and FlexControl acquisition software ran in positive ion mode. The instrument was calibrated using standard peptide mix spotted with CHCA matrix on the ground steel target (Bruker Daltonics, Bremen, Germany) for 500-1500 m/z. Each spectrum was acquired from 500 laser shots. […]", "note": "Square brackets hold non-standard residues; d marks the D form. Peptide text beside a SMILES is read from it.", "data": [{"smiles": "C[C@H](O)[C@@H](NC(=O)CNC(=O)[C@H](N)CCCNC(=N)N)C(=O)N[C@H](Cc1ccccc1)C(=O)N[C@H](CCC(=O)O)C(=O)NCC(=O)N[C@H](CCCCN)C(=O)N[C@H](Cc1ccccc1)C(=O)O", "note": "[D-AIP] (H-[dR]G[dT][dF][dE]G[dK][dF]-OH; N-terminus and C-terminus assumed)", "values": [{"measurement": "brain distribution", "result": "distributed across cortex, hippocampus, thalamus and different other brain regions"}]}]}
